Laboratory results taken from patent US10947274B1 (priority 2018, dated 2021).
Where a SMILES comes first, the peptide text is derived from it. Bridges are numbered along the chain shown (N, C = ends). [ ]: non-standard residue; d: D form. Sec = N[C@@H](C[SeH])C(=O)O

How the values were obtained:
rat α9α10 nAChR = rat α9α10 nAChR (Rattus norvegicus, UniProt P43144+Q9JLB5); assay: cell-based
α3β4 nAChR = α3β4 nAChR (Rattus norvegicus, UniProt P04757+P12392); conditions: cited from earlier work
Chain of α3β4 nAChR (P04757 26-499 limits assumed): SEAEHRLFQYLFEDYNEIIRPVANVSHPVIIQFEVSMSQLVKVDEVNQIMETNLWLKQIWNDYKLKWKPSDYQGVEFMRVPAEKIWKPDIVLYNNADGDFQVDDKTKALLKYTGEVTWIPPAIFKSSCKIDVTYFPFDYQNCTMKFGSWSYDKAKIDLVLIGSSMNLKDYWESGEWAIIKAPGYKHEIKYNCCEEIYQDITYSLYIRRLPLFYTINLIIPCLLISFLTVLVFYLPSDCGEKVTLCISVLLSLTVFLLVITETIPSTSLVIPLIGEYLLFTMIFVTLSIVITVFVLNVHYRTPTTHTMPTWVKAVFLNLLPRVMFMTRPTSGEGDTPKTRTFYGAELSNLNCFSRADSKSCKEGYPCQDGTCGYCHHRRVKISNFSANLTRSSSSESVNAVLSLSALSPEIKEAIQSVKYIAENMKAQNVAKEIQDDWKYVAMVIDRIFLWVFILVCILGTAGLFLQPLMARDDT
Chain of α3β4 nAChR (P12392 21-495 limits assumed): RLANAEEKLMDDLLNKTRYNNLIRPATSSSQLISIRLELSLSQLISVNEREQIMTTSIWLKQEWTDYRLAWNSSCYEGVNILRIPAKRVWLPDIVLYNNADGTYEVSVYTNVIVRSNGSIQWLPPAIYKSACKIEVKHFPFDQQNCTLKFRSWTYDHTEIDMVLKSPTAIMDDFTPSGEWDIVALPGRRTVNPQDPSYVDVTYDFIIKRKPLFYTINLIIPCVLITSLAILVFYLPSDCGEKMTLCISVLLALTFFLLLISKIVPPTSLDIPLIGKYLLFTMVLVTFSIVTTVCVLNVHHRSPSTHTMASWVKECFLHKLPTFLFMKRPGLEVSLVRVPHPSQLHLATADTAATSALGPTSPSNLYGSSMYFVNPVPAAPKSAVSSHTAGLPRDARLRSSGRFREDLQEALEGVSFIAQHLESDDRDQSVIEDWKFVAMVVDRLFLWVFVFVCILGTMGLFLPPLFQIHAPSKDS

Chain of rat α9α10 nAChR (P43144 26-479 limits assumed): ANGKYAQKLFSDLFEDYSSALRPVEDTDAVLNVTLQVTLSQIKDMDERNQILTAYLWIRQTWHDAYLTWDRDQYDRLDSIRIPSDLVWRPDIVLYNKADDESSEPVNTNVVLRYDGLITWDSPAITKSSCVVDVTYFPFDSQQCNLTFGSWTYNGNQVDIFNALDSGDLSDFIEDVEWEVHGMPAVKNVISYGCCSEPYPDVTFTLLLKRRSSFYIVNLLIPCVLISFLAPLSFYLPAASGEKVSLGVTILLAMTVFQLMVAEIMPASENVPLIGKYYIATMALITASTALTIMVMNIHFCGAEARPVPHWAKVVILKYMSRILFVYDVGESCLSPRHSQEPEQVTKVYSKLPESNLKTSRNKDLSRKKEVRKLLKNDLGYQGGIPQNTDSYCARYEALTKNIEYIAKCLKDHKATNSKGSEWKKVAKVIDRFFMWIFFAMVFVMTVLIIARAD
Chain of rat α9α10 nAChR (Q9JLB5 25-447 limits assumed): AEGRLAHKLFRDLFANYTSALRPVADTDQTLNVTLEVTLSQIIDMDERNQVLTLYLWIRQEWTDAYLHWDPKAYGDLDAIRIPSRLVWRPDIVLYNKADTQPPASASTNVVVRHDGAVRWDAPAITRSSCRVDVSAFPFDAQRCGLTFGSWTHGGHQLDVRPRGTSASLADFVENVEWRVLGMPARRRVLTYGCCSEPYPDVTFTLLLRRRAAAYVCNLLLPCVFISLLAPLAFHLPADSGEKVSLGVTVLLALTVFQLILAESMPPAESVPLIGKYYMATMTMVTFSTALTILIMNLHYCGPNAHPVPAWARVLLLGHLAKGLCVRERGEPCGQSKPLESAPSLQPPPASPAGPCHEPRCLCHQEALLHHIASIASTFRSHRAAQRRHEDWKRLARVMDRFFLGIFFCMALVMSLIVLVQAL

With `N=C(N)NCCC[C@H](NC(=O)[C@@H]1C[Se][Se]C[C@@H]2NC(=O)[C@@H](NC(=O)CN)CSSC[C@H](NC(=O)[C@H](CCCNC(=N)N)NC(=O)[C@@H]3CCCN3C(=O)[C@H](CC(=O)O)NC(=O)[C@H](CO)NC2=O)C(=O)N[C@@H](CCCNC(=N)N)C(=O)N[C@@H](Cc2ccc(O)cc2)C(=O)N[C@@H](CCCNC(=N)N)C(=O)N1)C(=O)O` [[C3 Sec;C12Sec] RgIA] (H-GC[Sec]SDPRCRYR[Sec]R-OH; disulfide 2-8; diselenide 3-12) the “% block” value (rat α9α10 nAChR) was <10 nM (81.9 ± 1.8% block at 10 nM) and the IC50 (rat α9α10 nAChR) was less than 0.01 µM.

For α-conotoxin AuIB, the IC50 (α3β4 nAChR) is given as 3.1 ± 1 µM.
